Experimental data from PubChem BioAssay AID330 (DTP/NCI, 2004).
Several values for one entry are separate records, joined by “and”; a condition that tells them apart may be missing. Equal values may be shown once. Inconclusive results and toxic doses are left out. Square brackets hold non-standard residues; d marks the D form. Peptide text beside a SMILES is read from it. * marks the point of attachment. Cbz = O=C(OCc1ccccc1)*; Nva = CCC[CH](N)C(=O)O; Bz = O=C(c1ccccc1)*; Bn = c1ccc(C*)cc1; βAla = NCCC(=O)O

System: P388 leukemia ip, CD2F1 mice, survival T/C
Assay: NCI In Vivo Anticancer Drug Screen. Data for tumor model P388 Leukemia (intraperitoneal) in CD2F1 (CDF1) mice
Conditions: endpoint: median survival time, higher = longer survival
Procedure, shortened: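 Mice carrying the transplanted tumor received test compound or vehicle. Survival was recorded in each group, and the value is the treated-group measurement divided by that of the vehicle-treated control group.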

[1] = dose: 12.5 mg/kg/injection, schedule: Q01DX009 (ip), vehicle: saline with Tween-80
[2] = dose: 25.0 mg/kg/injection, schedule: Q01DX009 (ip), vehicle: saline with Tween-80
[3] = dose: 50.0 mg/kg/injection, schedule: Q01DX009 (ip), vehicle: saline with Tween-80
[4] = dose: 60.0 mg/kg/injection, schedule: Q01DX005 (ip), vehicle: Klucel (hydroxypropylcellulose) (HPC)
[5] = dose: 120.0 mg/kg/injection, schedule: Q01DX005 (ip), vehicle: Klucel (hydroxypropylcellulose) (HPC)
[6] = dose: 240.0 mg/kg/injection, schedule: Q01DX005 (ip), vehicle: Klucel (hydroxypropylcellulose) (HPC)
[7] = dose: 50.0 mg/kg/injection, schedule: Q01DX005 (ip), vehicle: saline with Tween-80
[8] = dose: 100.0 mg/kg/injection, schedule: Q01DX005 (ip), vehicle: saline with Tween-80
[9] = dose: 200.0 mg/kg/injection, schedule: Q01DX005 (ip), vehicle: saline with Tween-80
[10] = dose: 50.0 mg/kg/injection, schedule: Q01DX009 (ip), vehicle: saline
[11] = dose: 100.0 mg/kg/injection, schedule: Q01DX009 (ip), vehicle: saline
[12] = dose: 200.0 mg/kg/injection, schedule: Q01DX009 (ip), vehicle: saline
[13] = dose: 25.0 mg/kg/injection, schedule: Q01DX005 (ip), vehicle: Klucel (hydroxypropylcellulose) (HPC)
[14] = dose: 50.0 mg/kg/injection, schedule: Q01DX005 (ip), vehicle: Klucel (hydroxypropylcellulose) (HPC)
[15] = dose: 100.0 mg/kg/injection, schedule: Q01DX005 (ip), vehicle: Klucel (hydroxypropylcellulose) (HPC)
[16] = dose: 200.0 mg/kg/injection, schedule: Q01DX005 (ip), vehicle: Klucel (hydroxypropylcellulose) (HPC)
[17] = dose: 25.0 mg/kg/injection, schedule: Q01DX009 (ip), vehicle: other
[18] = dose: 50.0 mg/kg/injection, schedule: Q01DX009 (ip), vehicle: other
[19] = dose: 100.0 mg/kg/injection, schedule: Q01DX009 (ip), vehicle: other
[20] = dose: 200.0 mg/kg/injection, schedule: Q01DX009 (ip), vehicle: other

COc1cccc2c1C(=O)c1c(O)c3c(c(O)c1C2=O)C[C@@](O)(C(C)=O)CC3OC1CC(NC(=O)C(C)N)C(O)C(C)O1 (stereo not given in full)
T/C (dose: 6.25 mg/kg/injection, schedule: Q04DX003 (ip), vehicle: saline): 108 % of control
T/C (dose: 12.5 mg/kg/injection, schedule: Q04DX003 (ip), vehicle: saline): 115 % of control
T/C (dose: 50.0 mg/kg/injection, schedule: Q04DX003 (ip), vehicle: saline): 150 % of control

Cc1nc(C(=O)NO)c2ccccc2n1
T/C [1]: 102 % of control
T/C [2]: 102 % of control
T/C [3]: 98 % of control and 97 % of control
T/C (dose: 200.0 mg/kg/injection, schedule: Q01DX009 (ip), vehicle: saline with Tween-80): 103 % of control

COc1cc2c(cc1OC)C13CC[N+]4(C)CC5=CCOC6CC(=O)N2C1C6C5CC34[O-] (stereo not given)
T/C [4]: 99 % of control
T/C [5]: 99 % of control
T/C [6]: 111 % of control

CC(C)(C=C(c1ccccc1)c1ccccc1)C=C(c1ccccc1)c1ccccc1
T/C [7]: 95 % of control
T/C [8]: 98 % of control
T/C [9]: 95 % of control

O=C(NNC(=O)c1cccnc1)Nc1cccc(Cl)c1Cl
T/C [1]: 104 % of control
T/C [2]: 100 % of control
T/C [3]: 95 % of control

Cc1ccc(N2C(=O)CC3(CCCC3)C2=O)cc1C
T/C (dose: 100.0 mg/kg/injection, schedule: Q04DX003 (ip), vehicle: Klucel (hydroxypropylcellulose) (HPC)): 100 % of control
T/C (dose: 200.0 mg/kg/injection, schedule: Q04DX003 (ip), vehicle: Klucel (hydroxypropylcellulose) (HPC)): 98 % of control
T/C (dose: 400.0 mg/kg/injection, schedule: Q04DX003 (ip), vehicle: Klucel (hydroxypropylcellulose) (HPC)): 98 % of control

CC(C)=NO
T/C [10]: 117 % of control
T/C [11]: 100 % of control
T/C [12]: 101 % of control

CN(C)c1ccc2c(SCC(=O)OCC(=O)[C@@]3(O)CC[C@H]4[C@@H]5CCC6=CC(=O)C=C[C@]6(C)[C@H]5C(=O)C[C@@]43C)c3ccc(N(C)C)cc3nc2c1
T/C [13]: 113 % of control

O=C1C=CC(=O)C2=C1C1c3ccccc3C2c2ccccc21
T/C [14]: 101 % of control
T/C [15]: 110 % of control

C/C(=C\N1CCN(c2ccc(F)cc2)CC1)C(=O)c1ccc(F)cc1
T/C (dose: 50.0 mg/kg/injection, schedule: Q04DX003 (ip), vehicle: saline with Tween-80): 101 % of control
T/C (dose: 100.0 mg/kg/injection, schedule: Q04DX003 (ip), vehicle: saline with Tween-80): 99 % of control
T/C (dose: 200.0 mg/kg/injection, schedule: Q04DX003 (ip), vehicle: saline with Tween-80): 98 % of control
T/C (dose: 400.0 mg/kg/injection, schedule: Q04DX003 (ip), vehicle: saline with Tween-80): 117 % of control

Nc1nc([Se])c2ncn(C3OC(CO)C(O)C3O)c2n1 (stereo not given)
T/C (dose: 4.0 mg/kg/injection, schedule: Q01DX009 (ip), vehicle: saline): 150 % of control and 157 % of control
T/C (dose: 6.25 mg/kg/injection, schedule: Q01DX009 (ip), vehicle: saline): 159 % of control
T/C (dose: 8.0 mg/kg/injection, schedule: Q01DX009 (ip), vehicle: saline): 164 % of control and 179 % of control
T/C (dose: 8.0 mg/kg/injection, schedule: Q01DX009 (ip), vehicle: water): 157 % of control
T/C (dose: 12.5 mg/kg/injection, schedule: Q01DX009 (ip), vehicle: saline): 183 % of control
T/C (dose: 16.0 mg/kg/injection, schedule: Q01DX009 (ip), vehicle: saline): 157 % of control and 198 % of control and 202 % of control
T/C (dose: 16.0 mg/kg/injection, schedule: Q01DX009 (ip), vehicle: water): 160 % of control and 161 % of control
T/C (dose: 25.0 mg/kg/injection, schedule: Q01DX009 (ip), vehicle: saline): 186 % of control
T/C (dose: 32.0 mg/kg/injection, schedule: Q01DX009 (ip), vehicle: saline): 121 % of control and 247 % of control and 98 % of control
T/C (dose: 32.0 mg/kg/injection, schedule: Q01DX009 (ip), vehicle: water): 190 % of control and 191 % of control
T/C [10]: 96 % of control

O=C(Nc1c2ccccc2nc2ccccc12)c1ccc([N+](=O)[O-])cc1
T/C [14]: 94 % of control
T/C [15]: 94 % of control
T/C [16]: 100 % of control

COC1=Cc2c(O)c3c(c(O)c2C(OC2CC(N)C(O)C(C)O2)C1)C(=O)c1c(OC)cccc1C3=O (stereo not given)
T/C (dose: 3.13 mg/kg/injection, schedule: Q04DX003 (ip), vehicle: water): 98 % of control
T/C (dose: 6.25 mg/kg/injection, schedule: Q04DX003 (ip), vehicle: water): 98 % of control
T/C (dose: 12.5 mg/kg/injection, schedule: Q04DX003 (ip), vehicle: water): 102 % of control
T/C (dose: 25.0 mg/kg/injection, schedule: Q04DX003 (ip), vehicle: water): 109 % of control
T/C (dose: 50.0 mg/kg/injection, schedule: Q04DX003 (ip), vehicle: water): 107 % of control

Nc1ncnc2c1ncn2C1OC(COP(=O)(O)OP(=O)(O)OP(=O)(O)O)C(OP(=O)(O)OP(=O)(O)OP(=O)(O)O)C1O (stereo not given) (tested in a mixture with another compound)
T/C [4]: 93 % of control
T/C [5]: 103 % of control
T/C [6]: 101 % of control

O=S(=O)(O)c1ccc2nccn2c1
T/C (dose: 100.0 mg/kg/injection, schedule: Q01DX001 (ip), vehicle: suspension in saline): 100 % of control
T/C (dose: 200.0 mg/kg/injection, schedule: Q01DX001 (ip), vehicle: suspension in saline): 89 % of control
T/C (dose: 400.0 mg/kg/injection, schedule: Q01DX001 (ip), vehicle: suspension in saline): 100 % of control

CN1CC(C(=O)NC2(C)OC3(O)C4CCCN4C(=O)C(Cc4ccccc4)N3C2=O)C=C2c3cccc4[nH]cc(c34)CC21 (stereo not given)
T/C [14]: 91 % of control
T/C [15]: 87 % of control
T/C [16]: 102 % of control

Cc1cc(NCCCCCCNc2cc(C)nc3cc(N)ccc23)c2ccc(N)cc2n1
T/C [17]: 150 % of control and 158 % of control

CCOC(=O)C(C)c1ccccc1 (stereo not given)
T/C [10]: 96 % of control
T/C [11]: 105 % of control
T/C [12]: 99 % of control

COc1cc(Br)c(C(=O)N2CCc3cc([N+](=O)[O-])ccc32)cc1OC
T/C [17]: 101 % of control
T/C [18]: 93 % of control
T/C [19]: 89 % of control
T/C [20]: 87 % of control

CCCC(NC(=O)OCc1ccccc1)C(=O)NC(Cc1ccc(O)cc1)C(=O)O (stereo not given) (Cbz-[Nva]-Tyr-OH; configuration not given here)
T/C [14]: 102 % of control
T/C [15]: 105 % of control
T/C [16]: 94 % of control

O=C1CNC(=O)C(Cc2c[nH]c3ccccc23)N1 (stereo not given)
T/C [10]: 100 % of control
T/C [11]: 96 % of control
T/C [12]: 100 % of control

COC(=O)C(CSCc1ccccc1)NC(=O)C(CSCc1ccccc1)NC(=O)CCNC(=O)c1ccccc1 (stereo not given) ({Bz-βAla}-Cys(Bn)-Cys(Bn)-OMe; configuration not given here)
T/C (dose: 12.5 mg/kg/injection, schedule: Q01DX009 (ip), vehicle: distilled water + Tween-80): 92 % of control
T/C (dose: 25.0 mg/kg/injection, schedule: Q01DX009 (ip), vehicle: distilled water + Tween-80): 89 % of control
T/C (dose: 50.0 mg/kg/injection, schedule: Q01DX009 (ip), vehicle: distilled water + Tween-80): 90 % of control
T/C (dose: 100.0 mg/kg/injection, schedule: Q01DX009 (ip), vehicle: distilled water + Tween-80): 94 % of control

CN=C(N)N/N=C(\c1ccccc1)c1ccc(F)cc1
T/C (dose: 12.5 mg/kg/injection, schedule: Q04DX002 (ip), vehicle: saline with Tween-80): 99 % of control
T/C (dose: 25.0 mg/kg/injection, schedule: Q04DX002 (ip), vehicle: saline with Tween-80): 100 % of control and 111 % of control

C/C(=C/c1nc2ccccc2[nH]1)c1ccccc1
T/C (dose: 25.0 mg/kg/injection, schedule: Q01DX005 (ip), vehicle: saline with Tween-80): 100 % of control
T/C [7]: 100 % of control and 107 % of control
T/C [8]: 121 % of control and 96 % of control
T/C [9]: 95 % of control and 96 % of control

COc1ccc2c(c1)CSCC2O (stereo not given)
T/C [18]: 95 % of control
T/C [19]: 100 % of control
T/C [20]: 96 % of control

Cc1cc2ccccc2nc1C#N
T/C [13]: 105 % of control
T/C [14]: 102 % of control
T/C [15]: 101 % of control
T/C [16]: 109 % of control

[Mn+2].[NH-]CC(=O)NC(Cc1ccccc1)C(=O)O.[NH-]CC(=O)NC(Cc1ccccc1)C(=O)O (stereo not given)
T/C (dose: 100.0 mg/kg/injection, schedule: Q04DX003 (ip), vehicle: saline): 113 % of control
T/C (dose: 200.0 mg/kg/injection, schedule: Q04DX003 (ip), vehicle: saline): 116 % of control
